Test results as given in the CombiSolv-Exp solvation set (Vermeire and Green 2021).
Values belong to the compound of their own block, whether it stands above or below them.

Experiment: solvent given as SMILES

SMILES: C=C1CCC2CC3C(C)CCC13C2(C)C (centres undefined)
- solvation free energy, 298 K (in O): 0.83 kcal/mol

SMILES: ClC(Cl)C(Cl)(Cl)Cl
- solvation free energy, 298 K (in O): -1.31 kcal/mol

SMILES: NC(N)=S
- solvation free energy, 298 K (in CCCCCCO): -9.57 kcal/mol
- solvation free energy, 298 K (in CCCCCO): -9.72 kcal/mol
- solvation free energy, 298 K (in CCCCO): -9.97 kcal/mol
- solvation free energy, 298 K (in CCCO): -10.2 kcal/mol
- solvation free energy, 298 K (in CCO): -10.6 kcal/mol

SMILES: CCCCN(CCC)N=O
- solvation free energy, 298 K (in CC(C)CC(C)(C)C): -7.18 kcal/mol
- solvation free energy, 298 K (in O): -5.12 kcal/mol

SMILES: Clc1cc(Cl)cc(Cl)c1
- solvation free energy, 298 K (in CCCCCC): -6.96 kcal/mol
- solvation free energy, 298 K (in CCCCCCCCO): -6.62 kcal/mol
- solvation free energy, 298 K (in O): -0.78 kcal/mol

SMILES: NCCc1ccc(O)cc1
- solvation free energy, 298 K (in C=CCCCCCCC=C): -10 kcal/mol
- solvation free energy, 298 K (in O): -11.8 kcal/mol

SMILES: C=C1CCC2C1C1C(C(C)C)CCC21C (centres undefined)
- solvation free energy, 298 K (in O): 1.19 kcal/mol

SMILES: CCC#N
- solvation free energy, 298 K (in C=CCCCCCCCCCCCCCC): -2.85 kcal/mol
- solvation free energy, 298 K (in CC(=O)N(C)C): -4.99 kcal/mol
- solvation free energy, 298 K (in CC(C)CC(C)(C)C): -2.83 kcal/mol
- solvation free energy, 298 K (in CCCCCC): -3.04 kcal/mol
- solvation free energy, 298 K (in CCCCCCC): -2.86 kcal/mol
- solvation free energy, 298 K (in CCCCCCCC): -2.84 kcal/mol
- solvation free energy, 298 K (in CCCCCCCCCCCCCCCC): -2.64 kcal/mol
- solvation free energy, 298 K (in CCCCCCCCO): -3.65 kcal/mol
- solvation free energy, 298 K (in CCCCO): -4.01 kcal/mol
- solvation free energy, 298 K (in CCOC(C)=O): -4.68 kcal/mol
- solvation free energy, 298 K (in CN(C)C=O): -5.01 kcal/mol
- solvation free energy, 298 K (in CO): -4.92 kcal/mol
- solvation free energy, 298 K (in ClC(Cl)(Cl)Cl): -3.78 kcal/mol
- solvation free energy, 298 K (in ClCCCl): -4.98 kcal/mol
- solvation free energy, 298 K (in Clc1ccccc1): -4.45 kcal/mol
- solvation free energy, 298 K (in N#Cc1ccccc1): -4.82 kcal/mol
- solvation free energy, 298 K (in O): -3.84 kcal/mol
- solvation free energy, 298 K (in [2H]O[2H]): -3.79 kcal/mol

SMILES: CCS
- solvation free energy, 298 K (in CC(C)CC(C)(C)C): -3.13 kcal/mol
- solvation free energy, 298 K (in CO): -3 kcal/mol
- solvation free energy, 298 K (in O): -1.07 kcal/mol
- solvation free energy, 298 K (in OCCOCCOCCOCCO): -2.7 kcal/mol

SMILES: CCCCCCCCCCCC
- solvation free energy, 298 K (in CCCCCC): -8.24 kcal/mol
- solvation free energy, 298 K (in CN(C)C=O): -6.15 kcal/mol
- solvation free energy, 298 K (in OCCOCCO): -4.02 kcal/mol
- solvation free energy, 298 K (in OCCOCCOCCO): -4.27 kcal/mol
- solvation free energy, 298 K (in OCCOCCOCCOCCO): -4.58 kcal/mol

SMILES: BrC(Br)Br
- solvation free energy, 298 K (in O): -1.96 kcal/mol

SMILES: O=Cc1cccc(O)c1
- solvation free energy, 298 K (in O): -9.52 kcal/mol

SMILES: CCOP(=S)(OCC)SCSCC
- solvation free energy, 298 K (in O): -4.37 kcal/mol

SMILES: CC1CCCC(O)C1 (centres undefined)
- solvation free energy, 298 K (in O): -5.21 kcal/mol

SMILES: COc1ccc(C=O)cc1O
- solvation free energy, 298 K (in O): -9.04 kcal/mol

SMILES: O=[N+]([O-])c1ccccc1O
- solvation free energy, 298 K (in CC(C)CC(C)(C)C): -6.5 kcal/mol
- solvation free energy, 298 K (in CCCCCC): -6.48 kcal/mol
- solvation free energy, 298 K (in CCCCCCC): -6.49 kcal/mol
- solvation free energy, 298 K (in CCCCCCCC): -6.49 kcal/mol
- solvation free energy, 298 K (in CCCCCCCCCC): -6.47 kcal/mol
- solvation free energy, 298 K (in Cc1cccc(C)c1): -7.73 kcal/mol
- solvation free energy, 298 K (in O): -4.58 kcal/mol

SMILES: ClC(Cl)=C(Cl)Cl
- solvation free energy, 298 K (in C1CCCC1): -5.37 kcal/mol
- solvation free energy, 298 K (in C1CCOC1): -5.43 kcal/mol
- solvation free energy, 298 K (in C1COCCO1): -5.1 kcal/mol
- solvation free energy, 298 K (in CCC(C)=O): -4.98 kcal/mol
- solvation free energy, 298 K (in CCCCCCCCCCCCCCCC): -4.88 kcal/mol
- solvation free energy, 298 K (in CS(C)=O): -4.27 kcal/mol
- solvation free energy, 298 K (in ClC(Cl)(Cl)Cl): -5.48 kcal/mol
- solvation free energy, 298 K (in ClCCCl): -5.05 kcal/mol
- solvation free energy, 298 K (in O): -0.06 kcal/mol

SMILES: CSSC
- solvation free energy, 298 K (in O): -1.74 kcal/mol

Continued, values first:

- solvation free energy, 298 K (in CN(C)C=O): -11.6 kcal/mol
- solvation free energy, 298 K (in O): -6.55 kcal/mol
SMILES: Cc1ccc(C(=O)O)cc1C

- solvation free energy, 298 K (in CC(C)O): -16.2 kcal/mol
- solvation free energy, 298 K (in CCCCCCCCCCO): -16.4 kcal/mol
- solvation free energy, 298 K (in CCCCCCCCO): -16.4 kcal/mol
- solvation free energy, 298 K (in CCCCCCO): -16.5 kcal/mol
SMILES: CCCCCCCCCCCCCCCCCCCCO

- solvation free energy, 298 K (in COC(C)(C)C): -4.8 kcal/mol
- solvation free energy, 298 K (in O): -3.88 kcal/mol
SMILES: CN1CCCCC1

- solvation free energy, 298 K (in O): 2.94 kcal/mol
SMILES: CC(C)CCC(C)(C)C

- solvation free energy, 298 K (in C=CCCCCCCC=C): -9.41 kcal/mol
- solvation free energy, 298 K (in O): -13.7 kcal/mol
SMILES: O=C(O)C(O)c1ccccc1 (centres undefined)

- solvation free energy, 298 K (in O): -9.74 kcal/mol
SMILES: CCC(=O)c1c(C)[nH]n(-c2ccccc2)c1=O

- solvation free energy, 298 K (in CCCO): -4.64 kcal/mol
SMILES: CCC(C)CCC(C)C (centres undefined)

- solvation free energy, 298 K (in O): 3.43 kcal/mol
SMILES: FC1(F)C(F)(F)C(F)(F)C1(F)F

- solvation free energy, 298 K (in CC(C)(C)O): -5.91 kcal/mol
- solvation free energy, 298 K (in CC(C)CC(C)(C)C): -4.69 kcal/mol
- solvation free energy, 298 K (in CC(C)CO): -6.19 kcal/mol
- solvation free energy, 298 K (in CC(C)O): -5.88 kcal/mol
- solvation free energy, 298 K (in CCC(C)O): -6 kcal/mol
- solvation free energy, 298 K (in CCOC(C)=O): -5.67 kcal/mol
- solvation free energy, 298 K (in O): -4.63 kcal/mol
SMILES: Cc1ccccn1

- solvation free energy, 298 K (in O): -6.68 kcal/mol
SMILES: CCCCCCCOC(=O)c1ccccc1C(=O)OCCCCCCC

- solvation free energy, 298 K (in CCOC(C)=O): -13.6 kcal/mol
- solvation free energy, 298 K (in O): -13 kcal/mol
SMILES: O=C(O)Cc1ccc(O)cc1

- solvation free energy, 298 K (in O): 0.66 kcal/mol
SMILES: CC1=CCCCC1
